Results: publication PMC11324436 (2024)

How the values were obtained:
Experiment in all cases: NMM fluorescence enhancement
[1] = tested on: 15THR1A (DNA, aptamer) GGTTGGTGTGGTTGG; settings: 10 mM KCl, 2 mM MgSO4 (added), 0.37 mM CaCl2; SSMB1 pH 5.9, 23 °C; 2 µM aptamer, 2 µM NMM
[2] = tested on: 55PYO2A (DNA, aptamer) CTAGGAATCAGGAGCGAATGTTAGAGTATTTGGATAGTATGTTTATTGTATCGGC; settings: 10 mM KCl, 2 mM MgSO4 (added), 0.37 mM CaCl2; SSMB1 pH 5.9, 23 °C; 2 µM aptamer, 2 µM NMM; no enhancement over control
[3] = tested on: 55PYO4A (DNA, aptamer) GATCGGAATGGGAGCGAATGAGGAGGGAGCGCGGACATGGTGCAGCAGCCCGACG; settings: 10 mM KCl, 2 mM MgSO4 (added), 0.37 mM CaCl2; SSMB1 pH 5.9, 23 °C; 2 µM aptamer, 2 µM NMM
[4] = tested on: Oligo 5637 (DNA, single strand) GCCTGTTGTGAGCCTCCTGTCGAAGTATGCGATAGGAGCGAATGATATATATCAAGTTACCACACGGATGTACTTGCTTGAGCGTTTATTCTTGTCTCCC; settings: 10 mM KCl, 2 mM MgSO4 (added), 0.37 mM CaCl2; SSMB1 pH 5.9, 23 °C; 2 µM aptamer, 2 µM NMM; no enhancement over control

## CCc1c(C)c2cc3nc(cc4nc(cc5c(CC)c(C)c(cc1[nH]2)n5C)C(C)=C4CCC(=O)O)C(CCC(=O)O)=C3C
[1]
  binding: yes
[2]
  binding: no
[3]
  binding: yes
[4]
  binding: no
